Laboratory results: patent US9783592B2 (priority 2010, dated 2017)

What was measured:
[1] = solubility in aqueous solution; type: physicochemical
[2] = target: T1, glucagon receptor (Homo sapiens, UniProt P47871); assay: glucagon antagonist activity, reduction of glucagon-induced cAMP production in an in vitro assay; type: cell-based; settings: PLA at position 6 versus positions 4 and 5
T1 construct: expressed in transfected cells; host or cells: HEK293

[3] = target: T2, GLP-1 receptor (Homo sapiens, UniProt P43220); assay: GLP-1 receptor activation, cAMP induction in HEK293 cells over-expressing the receptor (luciferase reporter); type: cell-based
T2 construct: expressed in transfected cells; host or cells: HEK293

[4] = Stability analysis in human plasma (estrogen release); type: in vitro ADME; settings: 1 mg/mL, 100% human plasma, pH 7.4, 37° C.
[5] = target: T2, GLP-1 receptor; assay: GLP-1 activity (cAMP induction), CRE-luciferase reporter assay in HEK293 cells; type: cell-based; settings: read-out: GLP-1 EC50; Example 22; HEK293 cells co-transfected with GLP-1 receptor and CRE-luciferase
[6] = Example 20: DIO mice, daily s.c. dosing; type: in vivo
[7] = target: T2, GLP-1 receptor; assay: GLP-1 binding, [I125]-GLP-1 SPA with receptor membrane extracts; settings: read-out: GLP-1 IC50, Example 22, GLP-1 receptor cell membrane extracts
[8] = target: T3, ERα (Homo sapiens, UniProt P03372); settings: read-out: ERα IC50; purified ERα, [I125]-estradiol
[9] = target: T3, ERα; type: cell-based; set-up: T47D cells transfected with the luciferase gene fused to the estrogen response element (ERE); endogenous in cells; host or cells: T47D; settings: T47D cells, ERE-luciferase

T2 sequence (P43220 24-463, species assumed): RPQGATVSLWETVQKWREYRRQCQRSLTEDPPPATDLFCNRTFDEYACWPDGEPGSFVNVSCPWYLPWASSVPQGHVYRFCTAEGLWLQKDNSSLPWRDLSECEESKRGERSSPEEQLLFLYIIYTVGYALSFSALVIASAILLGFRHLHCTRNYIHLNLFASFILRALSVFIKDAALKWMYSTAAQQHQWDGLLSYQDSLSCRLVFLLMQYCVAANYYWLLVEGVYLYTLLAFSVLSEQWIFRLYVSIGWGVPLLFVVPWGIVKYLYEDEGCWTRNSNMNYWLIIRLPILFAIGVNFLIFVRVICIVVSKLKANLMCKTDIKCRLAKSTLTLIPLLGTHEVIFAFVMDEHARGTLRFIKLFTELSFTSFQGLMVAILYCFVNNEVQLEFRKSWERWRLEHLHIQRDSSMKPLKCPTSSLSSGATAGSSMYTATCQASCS
T3 sequence (P03372 whole entry, the tested form may be a part): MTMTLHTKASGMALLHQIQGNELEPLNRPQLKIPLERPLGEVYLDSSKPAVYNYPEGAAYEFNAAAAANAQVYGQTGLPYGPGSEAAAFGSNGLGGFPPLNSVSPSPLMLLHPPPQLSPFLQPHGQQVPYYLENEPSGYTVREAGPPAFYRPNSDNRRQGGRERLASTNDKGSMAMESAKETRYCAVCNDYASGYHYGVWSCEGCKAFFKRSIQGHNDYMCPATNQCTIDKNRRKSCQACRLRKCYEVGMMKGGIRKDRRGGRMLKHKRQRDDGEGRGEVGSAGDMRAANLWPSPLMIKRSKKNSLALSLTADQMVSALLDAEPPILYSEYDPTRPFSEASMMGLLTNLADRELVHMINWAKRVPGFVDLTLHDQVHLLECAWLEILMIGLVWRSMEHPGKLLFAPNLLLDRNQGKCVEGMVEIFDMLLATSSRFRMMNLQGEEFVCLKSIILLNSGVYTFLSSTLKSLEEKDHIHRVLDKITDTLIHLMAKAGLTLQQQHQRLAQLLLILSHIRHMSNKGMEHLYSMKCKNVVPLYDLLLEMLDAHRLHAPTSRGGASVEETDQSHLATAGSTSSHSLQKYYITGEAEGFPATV
T1 sequence (P47871 26-477): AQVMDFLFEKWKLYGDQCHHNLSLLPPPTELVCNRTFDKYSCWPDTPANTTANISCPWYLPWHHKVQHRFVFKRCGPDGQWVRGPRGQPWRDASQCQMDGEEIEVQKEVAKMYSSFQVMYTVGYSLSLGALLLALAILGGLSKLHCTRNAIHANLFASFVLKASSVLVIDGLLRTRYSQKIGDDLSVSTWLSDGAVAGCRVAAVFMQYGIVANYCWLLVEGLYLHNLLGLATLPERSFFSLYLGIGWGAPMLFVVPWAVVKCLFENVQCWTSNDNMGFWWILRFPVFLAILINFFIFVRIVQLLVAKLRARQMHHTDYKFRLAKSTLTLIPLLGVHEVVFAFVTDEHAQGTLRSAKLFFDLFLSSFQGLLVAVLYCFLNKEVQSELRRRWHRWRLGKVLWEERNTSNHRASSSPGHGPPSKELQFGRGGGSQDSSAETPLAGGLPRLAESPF

## CSCC[C@H](NC(=O)[C@H](CC(C)C)NC(=O)[C@H](Cc1c[nH]c2ccccc12)NC(=O)[C@H](CCC(N)=O)NC(=O)[C@@H](NC(=O)[C@H](Cc1ccccc1)NC(=O)[C@H](CC(=O)O)NC(=O)[C@H](CCC(N)=O)NC(=O)[C@H](C)NC(=O)[C@H](CCCN=C(N)N)NC(=O)[C@H](CCCN=C(N)N)NC(=O)[C@H](CO)NC(=O)[C@H](CC(=O)O)NC(=O)[C@H](CC(C)C)NC(=O)[C@H](Cc1ccc(O)cc1)NC(=O)[C@H](CCCCN)NC(=O)[C@H](CO)NC(=O)[C@H](Cc1ccc(O)cc1)NC(=O)[C@H](CC(=O)O)NC(=O)[C@H](CO)NC(=O)[C@@H](NC(=O)[C@H](Cc1ccccc1)NC(=O)[C@@H](NC(=O)CNC(=O)[C@H](CCC(N)=O)NC(=O)[C@H](CO)NC(=O)[C@@H](N)Cc1c[nH]cn1)[C@@H](C)O)[C@@H](C)O)C(C)C)C(=O)N[C@@H](CC(N)=O)C(=O)N[C@H](C(=O)O)[C@@H](C)O [Glucagon]
[1]
  solubility in aqueous solution: poor solubility in aqueous solution, particularly at physiological pH

## PLA6 analog: glucagon peptide, first 5 amino acids removed from the N-terminus, remaining N-terminal amino group replaced with a hydroxyl group
[2]
  glucagon antagonist potency: appreciably more potent antagonist than glucagon analogs having a slightly extended N-terminus

## SEQ ID NO: 22: glucagon analog in which the native glutamine at position 3 is substituted with glutamic acid
[3]
  selectivity for the GLP-1 receptor over the glucagon receptor: approximately a tenfold selectivity for the GLP-1 receptor

## CC[C@H](C)[C@H](NC(=O)[C@H](Cc1ccccc1)NC(=O)[C@H](CCC(=O)O)NC(=O)[C@H](CCCCN)NC(=O)[C@H](C)NC(=O)[C@H](C)NC(=O)[C@H](CCC(N)=O)NC(=O)[C@H](CCC(=O)O)NC(=O)[C@H](CCC(=O)O)NC(=O)[C@H](CC(C)C)NC(=O)[C@H](Cc1ccc(O)cc1)NC(=O)[C@H](CO)NC(=O)[C@H](CO)NC(=O)[C@@H](NC(=O)[C@H](CC(=O)O)NC(=O)[C@H](CO)NC(=O)[C@@H](NC(=O)[C@H](Cc1ccccc1)NC(=O)[C@@H](NC(=O)CNC(=O)[C@H](CCC(=O)O)NC(=O)C(C)(C)NC(=O)[C@@H](N)Cc1c[nH]cn1)[C@@H](C)O)[C@@H](C)O)C(C)C)C(=O)N[C@@H](C)C(=O)N[C@@H](Cc1c[nH]c2ccccc12)C(=O)N[C@@H](CC(C)C)C(=O)N[C@H](C(=O)N[C@@H](CCCCN)C(=O)NCC(=O)NCC(=O)N1CCC[C@H]1C(=O)N[C@@H](CO)C(=O)N[C@@H](CO)C(=O)NCC(=O)N[C@@H](C)C(=O)N1CCC[C@H]1C(=O)N1CCC[C@H]1C(=O)N1CCC[C@H]1C(=O)N[C@@H](CO)C(=O)N[C@@H](CCCCNC(=O)COc1ccc2c(c1)CC[C@@H]1[C@@H]2CC[C@]2(C)[C@@H](O)CC[C@@H]12)C(N)=O)C(C)C [GLP-1/Estrogen(3-ether)]
[4]
  estrogen release in plasma: no estrogen release over 72 hours

## CC[C@H](C)[C@H](NC(=O)[C@H](Cc1ccccc1)NC(=O)[C@H](CCC(=O)O)NC(=O)[C@H](CCCCN)NC(=O)[C@H](C)NC(=O)[C@H](C)NC(=O)[C@H](CCC(N)=O)NC(=O)[C@H](CCC(=O)O)NC(=O)[C@H](CCC(=O)O)NC(=O)[C@H](CC(C)C)NC(=O)[C@H](Cc1ccc(O)cc1)NC(=O)[C@H](CO)NC(=O)[C@H](CO)NC(=O)[C@@H](NC(=O)[C@H](CC(=O)O)NC(=O)[C@H](CO)NC(=O)[C@@H](NC(=O)[C@H](Cc1ccccc1)NC(=O)[C@@H](NC(=O)CNC(=O)[C@H](CCC(=O)O)NC(=O)C(C)(C)NC(=O)[C@@H](N)Cc1c[nH]cn1)[C@@H](C)O)[C@@H](C)O)C(C)C)C(=O)N[C@@H](C)C(=O)N[C@@H](Cc1c[nH]c2ccccc12)C(=O)N[C@@H](CC(C)C)C(=O)N[C@H](C(=O)N[C@@H](CCCCN)C(=O)NCC(=O)NCC(=O)N1CCC[C@H]1C(=O)N[C@@H](CO)C(=O)N[C@@H](CO)C(=O)NCC(=O)N[C@@H](C)C(=O)N1CCC[C@H]1C(=O)N1CCC[C@H]1C(=O)N1CCC[C@H]1C(=O)N[C@@H](CO)C(=O)N[C@@H](CCCCNC(=O)CCC(=O)Oc1ccc2c(c1)CC[C@@H]1[C@@H]2CC[C@]2(C)[C@@H](OC(C)=O)CC[C@@H]12)C(N)=O)C(C)C [GLP-1/Estrogen(3-ester)]
[5]
  EC50: 0.014 ± 0.001 nM
[6]; FIG. 9b
  fat mass: least amount of fat mass
[6]; s.c. once per day, after 7 days
  change in body weight: greatest decrease in body weight
[7]
  IC50: 0.627 ± 0.046 nM
[8]
  IC50: 198 ± 16.8 nM
[9]
  EC50: 0.013 ± 0.001 nM
